Measured values reported in patent US10221426B2, “Constitutively active PYR/PYL receptor proteins for improving plant stress tolerance” (The Regents of the University of California, priority 2009, dated 2019).

Molecular target: T1, HAB1 in the presence of PYR1 (Arabidopsis thaliana, UniProt O49686)
T1 construct: made in house; host or cells: E. coli BL21[DE3]pLysS
T1 sequence (O49686 1-191): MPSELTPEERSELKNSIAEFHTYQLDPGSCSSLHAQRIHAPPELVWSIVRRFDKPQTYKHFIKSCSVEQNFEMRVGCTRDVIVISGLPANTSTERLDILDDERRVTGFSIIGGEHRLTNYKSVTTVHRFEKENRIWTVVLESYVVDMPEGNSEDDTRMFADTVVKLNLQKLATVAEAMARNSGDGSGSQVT
T1 sequence (Q9CAJ0 23-511 partner): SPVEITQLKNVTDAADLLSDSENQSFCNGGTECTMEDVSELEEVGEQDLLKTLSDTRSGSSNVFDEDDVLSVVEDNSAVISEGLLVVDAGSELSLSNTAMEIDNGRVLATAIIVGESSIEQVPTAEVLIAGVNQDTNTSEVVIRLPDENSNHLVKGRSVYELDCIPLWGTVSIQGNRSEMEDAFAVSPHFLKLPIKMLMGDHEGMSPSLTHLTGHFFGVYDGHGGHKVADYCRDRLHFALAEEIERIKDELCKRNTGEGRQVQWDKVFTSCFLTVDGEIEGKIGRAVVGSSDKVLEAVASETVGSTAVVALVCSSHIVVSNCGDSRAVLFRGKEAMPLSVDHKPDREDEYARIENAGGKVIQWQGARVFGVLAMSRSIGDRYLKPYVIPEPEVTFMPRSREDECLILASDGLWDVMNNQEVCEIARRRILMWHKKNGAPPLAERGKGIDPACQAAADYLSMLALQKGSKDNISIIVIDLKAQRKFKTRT
Experiment: PP2C phosphatase assay (pNPP), GST-HAB1 in the presence of PYR1
Assay type: biochemical
Details: 1 μM GST-HAB1, 1.5 μM 6×His-PYR1, 50 mM pNPP; read-out: IC50 of inhibition of HAB1 phosphatase activity in the presence of PYR1
Source text: Since ABI1 and relatives are negative regulators of the ABA signaling pathway, we hypothesized that the function of the ABA-promoted PYR1-PP2C interaction was to inhibit phosphatase activity and remove a negative input into the pathway, which would then promote signaling. To test this hypothesis, we examined the effects of (+)-ABA on PP2C enzyme kinetics using recombinant GST-HAB1, 6×His-PYR1 or 6×His-PYR1^P88S using the phosphatase substrate pNPP. The ORF of Arabidopsis HAB1 was amplified by PCR from a pUni clone obtained from the ABRC and cloned into pGex-2T to create a GST-HAB1 fusion protein. Both constructs were transformed into BL21[DE3]pLysS. For expression, cells harboring pGex-GST-HAB1 were grown overnight in 20 ml LB and then inoculated to 700 ml media containing 1 mM MnCl2 and continued incubation with shaking at RT for 8 hr. Protein expression was then induced by addition of IPTG to final concentration of 0.5 mM, and cells were cultured overnight at RT. […] Immediately after mixing, reactions were monitored for hydrolysis of pNPP at A405 t˜10 second intervals over 20 minutes using a Wallac plate reader. Reaction progressions were plotted, initial velocities calculated and converted to specific activities using a standard curve for 4-nitrophenol made in the same buffer system volumes/plate reader used for enzymatic reaction measurements. […]

CC1=CC(=O)CC(C)(C)C1(O)/C=C/C(C)=C\C(=O)O (single isomer, unassigned; (+)) [(+)-ABA] showed an IC50 of 0.18 µM.
